What was measured:
Type in all cases: cell-based
786-O [1] = test: Free drug in vitro cytotoxicity (resazurin); settings: Homo sapiens, 786-0, 786-O cells, 96 hours
Protocol: (§1) Cells as detailed below were collected and plated in 96 well black-sided plates at a density of 10,000 cells/well in 150 μL of medium. Serial dilutions of the test article (50 μL) were added, and incubation was carried out for 92 hours at 37° C. After addition of test compound, cultures were incubated to 96 hours at 37° C. Resazurin (0.25 mM, 50 μL, Sigma, St. Louis, Mo.) in medium was added and incubation was continued for 4 h. The plates were read on a Fusion HT microplate reader (Packard, Meriden, Conn.) using an excitation wavelength of 525 nm and an emission wavelength of 590 nm. Data from all assays were reduced using GraphPad Prism Version 4 for Windows (GraphPad Software, San Diego, Calif.). The IC50 concentrations compared to untreated control cells were determined using a 4 parameter curve fits.

TF1a = test: Free drug in vitro cytotoxicity (resazurin); settings: TF-1a, TF1a cells, 96 hours
Protocol: as §1

Caki-1 [2] = test: Free drug in vitro cytotoxicity (resazurin); settings: Homo sapiens, Caki-1 cells, 96 hours
Protocol: as §1

MCF-7 [3] = test: Free drug in vitro cytotoxicity (resazurin); settings: Homo sapiens, MCF7, MCF-7 cells, 96 hours
Protocol: as §1

BxPC-3 = test: Alternative cell assay (Cell Titer Glo cytotoxicity); settings: Homo sapiens, BxPC-3 cells, 48 hours
Protocol: (§2) Cells were plated in 150 μL growth media per well into black-sided clear-bottom 96-well plates (Costar, Corning) and allowed to settle for 1 hour in the biological cabinet before placing in the incubator at 37° C., 5% CO2. The following day, 4× concentration of drug stocks were prepared, and then titrated as 10-fold serial dilutions producing 8-point dose curves and added at 50 μl per well in duplicate. Cells were then incubated for 48 hours at 37° C., 5% CO2. Cytotoxicity was measure by incubating with 100 μL Cell Titer Glo (Promega) solution for 1 hour, and then luminescence was measured on a Fusion HT plate reader (Perkin Elmer). Data was processed with Excel (Microsoft) and GraphPad (Prism) to produce dose response curves and IC50 values were generated and data collected.

786-O [4] = test: as above; settings: Homo sapiens, 786-0, 786-O cells, 48 hours
Protocol: as §2

HEL = test: as above; settings: Homo sapiens, HEL cells, 48 hours
Protocol: as §2

Caki-1 [5] = test: as above; settings: Homo sapiens, Caki-1 cells, 48 hours
Protocol: as §2

MCF-7 [6] = test: as above; settings: Homo sapiens, MCF7, MCF-7 cells, 48 hours
Protocol: as §2

HL-60 = test: as above; settings: Homo sapiens, HL-60 cells, 48 hours
Protocol: as §2

`COc1cc2c(cc1OCCCOc1cc3c(cc1OC)C(=O)N1C=C(c4cccc(N)c4)C[C@H]1C=N3)N=C[C@@H]1CC(C)=CN1C2=O` [Compound 18, (S)-2-(3-aminophenyl)-7-methoxy-8-(3-((S)-7-methoxy-2-methyl-5-oxo-5,11a-dihydro-1H-pyrrolo[2,1-c][1,4]benzodiazepine-8-yloxy)propoxy)-1H-pyrrolo[2,1-c][1,4]benzodiazepine-5(11aH)-one] gave an IC50 (786-O [1]) of 1000 pM, an IC50 (TF1a) of 700 pM and an IC50 (Caki-1 [2]) of 600 pM. For the same molecule, the IC50 (MCF-7 [3]) was 2000 pM.

`COc1cc2c(cc1OCCCOc1cc3c(cc1OC)C(=O)N1C=C(c4ccc(N)cc4)C[C@H]1C=N3)N=C[C@@H]1CC(C)=CN1C2=O` [Compound 11, (S)-2-(4-aminophenyl)-7-methoxy-8-(3-((S)-7-methoxy-2-methyl-5-oxo-5,11a-dihydro-1H-pyrrolo[2,1-c][1,4]benzodiazepine-8-yloxy)propoxy)-1H-pyrrolo[2,1-c][1,4]benzodiazepine-5(11aH)-one] gave an IC50 (BxPC-3) of 3000 pM, an IC50 (786-O [4]) of 850 pM and an IC50 (HEL) of 60 pM. The IC50 (Caki-1 [5]) was 400 pM, the IC50 (MCF-7 [6]) was 7000 pM and the IC50 (HL-60) was 100 pM. For the same molecule, the IC50 (786-O [1]) was 100 pM, the IC50 (TF1a) was 70 pM and the IC50 (Caki-1 [2]) was 60 pM. The IC50 (MCF-7 [3]) was 200 pM.

Molecule `CC=CC1=CN2C(=O)c3cc(OC)c(OCCCCCOc4cc5c(cc4OC)C(=O)N4C=C(c6cccc(N)c6)C[C@H]4C=N5)cc3N=C[C@@H]2C1` [Compound 15, (S)-2-(3-aminophenyl)-8-(5-((S)-2-propenyl-7-methoxy-5-oxo-5,11a-dihydro-1H-pyrrolo[2,1-c][1,4]benzodiazepine-8-yloxy)pentyloxy)-7-methoxy-1H-pyrrolo[2,1-c][1,4]benzodiazepine-5(11aH)-one] has an IC50 (MCF-7 [3]) of 30 pM.

Reference: patent publication US9732084B2, “Pyrrolobenzodiazepines used to treat proliferative diseases” (priority 2010, dated 2017)
